According to patent US11345708B2, “Substituted imidazo[1,2-a]imidazoles as modulators of metabotropic glutamate receptor 4 activity” (Hoffmann-La Roche Inc., priority 2017, dated 2022):

Columns and labels:
rodent = details: 6-OHDA rodent model of PD; cited from earlier work
mice [1] = details: mice treated with MPTP; cited from earlier work
mice [2] = details: reported by Addex 2010; cited from earlier work
rats = details: cited from earlier work
mice [3] = details: reported by Addex 2010; cited from earlier work; remark: listed apart in the source
human mGlu4 receptor = target: T1, human mGlu4 receptor (Homo sapiens, UniProt Q14833); experiment: Ca2+ mobilization in vitro assay on recombinant human mGlu4 expressed in HEK293 cells; format: cell-based; details: HEK-293 cells stably expressing human mGlu4; L-AP4 added at EC20; Fluo-4 fluorescence; read-out: EC50 (uM) mGlu4 PAM
T1 construct: expressed in transfected cells; host or cells: HEK-293 (monoclonal, stably transfected)
T1 sequence (Q14833 33-912): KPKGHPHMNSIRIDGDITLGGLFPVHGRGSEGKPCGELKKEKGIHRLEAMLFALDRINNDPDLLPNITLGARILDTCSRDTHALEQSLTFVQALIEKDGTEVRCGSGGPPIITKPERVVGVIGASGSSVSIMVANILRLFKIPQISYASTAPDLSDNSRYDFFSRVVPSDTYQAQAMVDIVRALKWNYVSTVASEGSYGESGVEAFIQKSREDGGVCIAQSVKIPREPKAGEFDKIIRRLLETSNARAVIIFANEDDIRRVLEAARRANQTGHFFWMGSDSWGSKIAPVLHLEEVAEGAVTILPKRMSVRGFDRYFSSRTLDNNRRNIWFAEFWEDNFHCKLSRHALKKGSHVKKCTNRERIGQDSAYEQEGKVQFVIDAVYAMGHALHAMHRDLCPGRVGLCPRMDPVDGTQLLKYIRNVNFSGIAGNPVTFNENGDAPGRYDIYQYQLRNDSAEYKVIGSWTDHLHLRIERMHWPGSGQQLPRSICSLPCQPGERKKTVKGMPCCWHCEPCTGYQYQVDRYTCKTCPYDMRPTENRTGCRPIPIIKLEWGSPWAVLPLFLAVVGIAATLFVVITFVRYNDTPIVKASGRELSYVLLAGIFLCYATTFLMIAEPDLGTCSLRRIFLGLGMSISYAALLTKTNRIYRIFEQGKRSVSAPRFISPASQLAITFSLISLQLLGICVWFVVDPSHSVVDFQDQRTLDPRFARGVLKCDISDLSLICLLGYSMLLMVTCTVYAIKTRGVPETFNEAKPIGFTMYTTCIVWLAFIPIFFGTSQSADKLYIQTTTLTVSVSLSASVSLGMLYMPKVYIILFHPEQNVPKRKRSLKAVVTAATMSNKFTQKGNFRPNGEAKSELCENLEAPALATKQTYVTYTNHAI
Method: Determination of EC50 Values Using a Ca2+ Mobilization In Vitro Assay on Recombinant Human mGlu4 Expressed in HEK293 Cells:
A monoclonal HEK-293 cell line stably transfected with a cDNA encoding for the human mGlu4 receptor was generated; for the work with mGlu4 Positive Allosteric Modulators (PAMs), a cell line with low receptor expression levels and low constitutive receptor activity was selected to allow the differentiation of agonistic versus PAM activity. Cells were cultured according to standard protocols (Freshney, 2000) in Dulbecco's Modified Eagle Medium with high glucose supplemented with 1 mM glutamine, 10% (vol/vol) heat-inactivated bovine calf serum, Penicillin/Streptomycin, 50 μg/ml hygromycin and 15 μg/ml blasticidin (all cell culture reagents and antibiotics from Invitrogen, Basel, Switzerland).
About 24 hrs before an experiment, 5×10^4 cells/well were seeded in poly-D-lysine coated, black/clear-bottomed 96-well plates. The cells were loaded with 2.5 μM Fluo-4 AM in loading buffer (1×HBSS, 20 mM HEPES) for 1 hr at 37° C. and washed five times with loading buffer. The cells were transferred into a Functional Drug Screening System 7000 (Hamamatsu, Paris, France), and 11 half logarithmic serial dilutions of test compound at 37° C. were added and the cells were incubated for 10-30 min. with on-line recording of fluorescence. Following this pre-incubation step, the agonist (2S)-2-amino-4-phosphonobutanoic acid (L-AP4) was added to the cells at a concentration corresponding to EC20 with on-line recording of fluorescence; in order to account for day-to-day variations in the responsiveness of cells, the EC20 of L-AP4 was determined immediately ahead of each experiment by recording of a full dose-response curve of L-AP4.
Responses were measured as peak increase in fluorescence minus basal (i.e. fluorescence without addition of L-AP4), normalized to the maximal stimulatory effect obtained with saturating concentrations of L-AP4. Graphs were plotted with the % maximal stimulatory using XLfit, a curve fitting program that iteratively plots the data using Levenburg Marquardt algorithm. The single site competition analysis equation used was y=A+((B−A)/(1+((x/C)D))), where y is the % maximal stimulatory effect, A is the minimum y, B is the maximum y, C is the EC50, x is the log 10 of the concentration of the competing compound and D is the slope of the curve (the Hill Coefficient). From these curves the EC50 (drug concentration at which 50% of the maximal receptor activation was achieved), the Hill coefficient as well as the maximal response in % of the maximal stimulatory effect obtained with saturating concentrations of L-AP4 were calculated (see Fig. 1).
A depression of the signal observed after addition of the EC20 concentration of L-AP4 was indicative of an inhibitory activity of the test compound.

Row | SMILES | EC50 (human mGlu4 receptor) [µM] | other results
1 | N[C@@H](CCP(=O)(O)O)C(=O)O [L-AP4, (2S)-2-amino-4-phosphonobutanoic acid] | – | neuroprotection (rodent): neuroprotective effects
2 | O=C(Nc1ccccc1)C12CC1/C(=N\O)c1ccccc1O2 (single isomer, unassigned; (-)) [(−)-PHCCC] | – | nigrostriatal degeneration (mice [1]): reduced nigrostriatal degeneration
3 | Cc1ccnc(Nc2nc(-c3cn[nH]c3)c(C)s2)n1 [ADX88178] | – | activity in marble burying test (mice [2]): active; profile in rat EPM test (rats; rat, after oral dosing): anxiolytic-like profile; activity in EPM (rats; rats, reported by Addex 2010): active; activity in EPM (mice [3]): active
4 | Cn1cc(-c2cnc3n2C(C)(C)C(=O)N3c2c(F)cc(C#Cc3ccccc3)cc2Cl)cn1 [Example 34, 1-(2-chloro-6-fluoro-4-(phenylethynyl)phenyl)-3,3-dimethyl-5-(1-methyl-1H-pyrazol-4-yl)-1H-imidazo[1,2-a]imidazol-2(3H)-one] | 0.195 | –
5 | O=C1N(c2c(F)cc(-n3cc(C(F)(F)F)cn3)cc2F)c2ncc(-c3ccccn3)n2C12CC2 [Example 21, 7′-[2,6-difluoro-4-[4-(trifluoromethyl)pyrazol-1-yl]phenyl]-3′-(2-pyridyl)spiro[cyclopropane-1,5′-imidazo[1,2-a]imidazole]-6′-one] | 0.596 | –
6 | CC(O)c1cnc2n1C1(CC1)C(=O)N2c1c(F)cc(C#Cc2ccccc2)cc1F (stereo not shown) [Example 59, 7′-[2,6-difluoro-4-(2-phenylethynyl)phenyl]-3′-(1-hydroxyethyl)spiro[cyclopropane-1,5′-imidazo[1,2-a]imidazole]-6′-one] | 0.824 | –
7 | O=C1N(c2c(F)cc(-n3cc(C(F)(F)F)cn3)cc2F)c2ncc(-c3ccncn3)n2C12CC2 [Example 23, 7′-[2,6-difluoro-4-[4-(trifluoromethyl)pyrazol-1-yl]phenyl]-3′-pyrimidin-4-yl-spiro[cyclopropane-1,5′-imidazo[1,2-a]imidazole]-6′-one] | 0.755 | –
8 | O=C1N(c2c(F)cc(N3CCN(CC(F)(F)F)CC3)cc2F)c2ncc(-c3cc[nH]n3)n2C12CC2 [Example 42, 7′-[2,6-difluoro-4-[4-(2,2,2-trifluoroethyl)piperazin-1-yl]phenyl]-3′-(1H-pyrazol-3-yl)spiro[cyclopropane-1,5′-imidazo[1,2-a]imidazole]-6′-one] | 0.417 | –
9 | Cn1cc(-c2cnc3n2C2(CC2)C(=O)N3c2c(F)cc(C#Cc3cccnc3)cc2F)cn1 [Example 37, 1′-(2,6-difluoro-4-(pyridin-3-ylethynyl)phenyl)-5′-(1-methyl-1H-pyrazol-4-yl)spiro[cyclopropane-1,3′-imidazo[1,2-a]imidazol]-2′(1′H)-one] | 0.229 | –
10 | O=C1N(c2c(F)cc(C#Cc3cccnc3)cc2F)c2ncc(-c3ccccn3)n2C12CC2 [Example 17, 7′-[2,6-difluoro-4-[2-(3-pyridyl)ethynyl]phenyl]-3′-(2-pyridyl)spiro[cyclopropane-1,5′-imidazo[1,2-a]imidazole]-6′-one] | 0.283 | –
11 | CC(F)(F)c1ccc(-c2cc(F)c(N3C(=O)C4(CC4)n4c(-c5cc[nH]n5)cnc43)c(F)c2)cc1 [Example 40, 1′-(4′-(1,1-difluoroethyl)-3,5-difluoro-[1,1′-biphenyl]-4-yl)-5′-(1H-pyrazol-3-yl)spiro[cyclopropane-1,3′-imidazo[1,2-a]imidazol]-2′(1′H)-one] | 0.206 | –
12 | O=C(Nc1cc(F)c(N2C(=O)C3(CC3)n3c(-c4ccncn4)cnc32)c(F)c1)c1ccccn1 [Example 13, N-[3,5-difluoro-4-(6′-oxo-3′-pyrimidin-4-yl-spiro[cyclopropane-1,5′-imidazo[1,2-a]imidazole]-7′-yl)phenyl]pyridine-2-carboxamide] | 0.077 | –
13 | O=C1N(c2c(F)cc(C#Cc3ccccc3)cc2F)c2ncc(I)n2C12CC2 [Example 9, 3-[2,6-difluoro-4-(2-phenylethynyl)phenyl]-6-iodo-2,3-dihydrospiro[[1,3]diazolo[1,2-a]imidazole-1,1′-cyclopropane]-2-one] | 0.245 | –
